From paper PMC9184688, “α-Glucosidase inhibitive diarylheptanoids from Ottelia acuminata var. acuminata, a traditional vegetable of Bai Nationality in Yunnan” (Natural Products and Bioprospecting, 2022)
Marks after values point to notes of the source that are not given here.

Tests used:
α-glucosidase = α-glucosidase (Saccharomyces cerevisiae, UniProt P53341); test: α-glucosidase inhibitory assay (PNPG, absorbance at 405 nm); format: biochemical; conditions: at a concentration of 50 μM; means ± SD (n = 3); read-out: α-Glucosidase Inhibition ratio (%)
Procedure: The α-glucosidase and PTB1B inhibitory activity were conducted according to the previous reports with slight modifications [49, 50]. […] The inhibition percentage was calculated as follows: inhibition rate (%) = (E – S)/E × 100% (E is the OD of the control and S is the OD of the sample) and IC50 (50% concentration of inhibition) was calculated by Reed and Muench method.

PTP1B = target: T1, PTP1B (Homo sapiens, UniProt P18031); test: PTP1B inhibitory assay (phosphate-based detection reagent, absorbance at 620 nm); format: biochemical; conditions: means ± SD (n = 3)
T1 construct: purchased Sigma Chemical (Merck KGaA, Darmstadt, Germany)
T1 sequence (P18031 1-322 limits assumed): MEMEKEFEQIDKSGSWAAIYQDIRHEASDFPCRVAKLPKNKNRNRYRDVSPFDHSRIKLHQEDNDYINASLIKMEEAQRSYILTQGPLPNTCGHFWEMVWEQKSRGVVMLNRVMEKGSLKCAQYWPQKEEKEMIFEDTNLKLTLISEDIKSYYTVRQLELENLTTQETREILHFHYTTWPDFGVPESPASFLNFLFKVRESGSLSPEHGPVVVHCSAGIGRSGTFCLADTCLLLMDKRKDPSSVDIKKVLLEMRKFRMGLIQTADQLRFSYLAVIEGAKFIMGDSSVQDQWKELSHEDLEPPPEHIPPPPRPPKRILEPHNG
Procedure: IR spectra were measured on a Bruker FT-IR Tensor-27 infrared spectrophotometer with KBr disks. Optical rotations were recorded on a JASCO P-1020 polarimeter. UV spectra were obtained with a Shimadzu UV-2401PC spectrometer. 1D and 2D NMR spectra were performed on a Bruker DRX-600 spectrometer using TMS as an internal standard. The chemical shifts (δ) were expressed in ppm with reference to the solvent signals. HREIMS and HRESIMS analysis were obtained from Waters Xevo TQS and Agilent G6230 TOF mass spectrometers, respectively. […] Semi-preparative HPLC was performed on a Waters 1525 HPLC with a ZORBAX SB-C18 (9.4 × 250 mm) column. Silica gel (100–200 and 200–300 mesh, Qingdao Marine Chemical Co., Ltd., People’s Republic of China), and MCI gel (75–150 μm, Mitsubishi Chemical Corporation, Tokyo, Japan) were used for column chromatography. Fractions were monitored by TLC (GF 254, Qingdao Marine Chemical Co., Ltd.), and spots were visualized by heating silica gel plates immersed in 10% H2SO4 in ethanol. Methanol (HPLC grade) and acetonitrile (HPLC grade) was purchased from CINC High Purity Solvents Co., Ltd (Shanghai, China).
The α-glucosidase and PTB1B inhibitory activity were conducted according to the previous reports with slight modifications. […] While in the PTB1B inhibitory assay, after addition of phosphate-based detection reagent then incubation at 30 °C for 20 min, and absorbance was measured at 620 nm and suramin was used as positive control. The inhibition percentage was calculated as follows: inhibition rate (%) = (E – S)/E × 100% (E is the OD of the control and S is the OD of the sample) and IC50 (50% concentration of inhibition) was calculated by Reed and Muench method.

[1] = test concentration of the compounds not given

Chain of α-glucosidase (P53341 whole entry): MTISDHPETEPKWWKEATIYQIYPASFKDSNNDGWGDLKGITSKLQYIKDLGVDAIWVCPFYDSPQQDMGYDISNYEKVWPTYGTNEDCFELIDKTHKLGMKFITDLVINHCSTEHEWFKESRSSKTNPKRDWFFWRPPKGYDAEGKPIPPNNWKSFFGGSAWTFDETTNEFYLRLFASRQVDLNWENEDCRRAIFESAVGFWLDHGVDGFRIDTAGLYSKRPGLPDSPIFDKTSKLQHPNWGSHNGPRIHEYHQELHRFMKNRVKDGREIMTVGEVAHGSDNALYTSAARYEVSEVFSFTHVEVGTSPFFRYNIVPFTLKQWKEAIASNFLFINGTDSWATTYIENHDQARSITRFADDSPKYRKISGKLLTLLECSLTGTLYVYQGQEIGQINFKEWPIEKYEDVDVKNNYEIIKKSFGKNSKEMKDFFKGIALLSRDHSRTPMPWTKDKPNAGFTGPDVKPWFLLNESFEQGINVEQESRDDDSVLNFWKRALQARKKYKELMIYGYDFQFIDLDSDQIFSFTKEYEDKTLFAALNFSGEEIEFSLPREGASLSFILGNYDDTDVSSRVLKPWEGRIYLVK

Structure (SMILES)	inhibition at 50 µM (α-glucosidase)	PTP1B inhibition ratio (%) (PTP1B; [1])	PTP1B inhibition ratio (%) (PTP1B; at a concentration of 20 μM, positive control)
Cc1ccc(C(=O)Nc2ccc(S(=O)(=O)O)c3cc(S(=O)(=O)O)cc(S(=O)(=O)O)c23)cc1NC(=O)c1cccc(NC(=O)Nc2cccc(C(=O)Nc3cc(C(=O)Nc4ccc(S(=O)(=O)O)c5cc(S(=O)(=O)O)cc(S(=O)(=O)O)c45)ccc3C)c2)c1 [Suramin, suramin, reference compound]			84.11 ± 0.42^d %
O=C1C/C=C/CCc2ccc(O)c(c2)-c2cc(ccc2O)C1 [Compound 4, Otteacumiene D]		10.37 ± 2.17%	
COc1ccc(CC/C=C\C=C\Cc2ccc(O)cc2)cc1 [Compound 6, Otteacumiene F]		-12.94 ± 2.98%	
COc1ccc(/C=C/C/C=C/CCc2ccc(OC)cc2)cc1 [Compound 7, (1E,4E)-1,7-di(4-methoxyphenyl)-1,4-heptadiene]		-26.62 ± 2.28%	
Oc1ccc(C/C=C/C=C\CCc2ccc(O)cc2)cc1 [Compound 5, Otteacumiene E]		-0.28 ± 1.89%	

Now from value to compound:

inhibition at 50 µM (α-glucosidase)	PTP1B inhibition ratio (%) (PTP1B; [1])	PTP1B inhibition ratio (%) (PTP1B; at a concentration of 20 μM, positive control)	Structure (SMILES)
38.3 ± 1.79%	-9.47 ± 2.28%		Oc1ccc2cc1Oc1ccc(cc1)CC=CC=CC(O)C2 (centres unmarked) [Compound 1, Otteacumiene A]
	-3.47 ± 1.21%		Oc1ccc2cc1Oc1ccc(cc1)CC/C=C\C=C\C2 [Compound 8, tedarenes A]
43.98 ± 0.43%	11.32 ± 2.03%		Oc1ccc2cc1Oc1ccc(cc1)C[C@H](O)/C=C\C=C\C2 [Compound 2, Otteacumiene B]
	19.07 ± 0.85%		COC1c2ccc(O)c(c2)Oc2ccc(cc2)CCC=CCC1O (centres unmarked) [Compound 3, Otteacumiene C]
